In patent US10731197B2, “Methods for detecting or quantifying CTP and CTP synthase activity” (Assistance Publique-Hopitaux de Paris, priority 2015, dated 2020):

System: CTP synthase
Assay: Determination of CTP synthase Michaelis-Menten constants Km and Vmax (CTP formation kinetics from UTP, LC-MS/MS)
Type: biochemical, human
Conditions: initial UTP 0 to 6 mM
Experimental: The cell extracts may be obtained from cultured cells (primary cultures of cells, blasts or cell lines), from blood derived cells. Particularly, mononuclear cells (PBMCs, peripheral blood mononuclear cells) have been isolated from peripheral blood. The cells were washed with phosphate buffer 0.1 M KH2PO4, pH=7.4, and then collected in HEPES buffer 70 mM, pH=8.0, containing 10 mM NaF and protease inhibitors leupeptin and pepstatin to the concentration of 10 μg/mL. The cells were immediately placed in a bath of ethanol and dry ice, and then placed for at least 1 hour at −80° C. The cells were then centrifuged for 30 minutes at 10 000 g at 4° C. The supernatant, containing the cytosolic fraction, was collected and contained proteins were dosed. One to 10 µg of proteins, prepared as described above, were used for measuring CTP synthase activity in a reaction mixture containing 4 μM internal standard, 1.25 mM UTP, 1.25 mM ATP, 0.31 mM GTP, 12.5 mM glutamine, 1.25 mM phosphoenolpyruvate, 0.62 mM EDTA and 10 mM NaF in 15 μL complete HEPES buffer 70 mM, pH=8.0. Enzymatic reaction was carried out at 37° C. for 90 minutes and then, the reaction tubes were cooled on ice and the enzymatic reaction was stopped by adding 15 μL HCLO4 1 M. The reaction tubes were vortexed and centrifuged for 5 minutes at 12 000 g at 4° C. The supernatants were diluted with the aqueous mobile phase A and transferred to a 384-well plate. Analyses were performed using a Waters chromatographic UPLC system (Acquity™ UPLC) connected to a Waters TQD quadrupole mass spectrometer, operated in the electrospray positive ion mode with selected reaction monitoring (SRM). […] Waters HSS T3, 1.8 μm particle size, 2.1×100 mm column, which was maintained at 30° C. throughout the analysis. The flow rate was 0.5 mL/min. Mobile phase A was 5 mM dibutylamine acetate in water and mobile phase B, 5 mM dibutylamine acetate in acetonitrile. Three distinct mobile-phase gradients were used (see Tables 6a to 6c below). Then the enzymatic constants of Michaelis-Menten, Km and Vmax were determined by performing CTP formation kinetics during 90 minutes by using initial concentrations of UTP ranging from 0 to 6 mM. The values obtained for Vmax and Km were of the same order of magnitude as those previously published with radio-isotopic methods (FIG. 4).

O=c1ccn([C@@H]2O[C@H](COP(=O)(O)OP(=O)(O)OP(=O)(O)O)[C@@H](O)[C@H]2O)c(=O)[nH]1 [UTP, uridine triphosphate]
Vmax (PBMCs activated, 90 minutes): 0.379 ± 0.091 nmol/min
Vmax (activated PBMC protein extracts, 90 min): 0.3789 ± 0.091 nmol/min
Vmax (resting PBMC protein extracts, 90 min): 0.083 ± 0.02 nmol/min
Vmax (resting cells, 90 minutes): 0.083 ± 0.02 nmol/min
